Where two headings read alike, the source gives them in different places.
Legend:
[1] = system: Maximal electroshock seizures; assay: MES maximal electroshock seizure test, mice ip; format: in vivo; conditions: for responders at 10 mg/kg / responders at 100 mg/kg / responders at 300 mg/kg: Mus musculus, ip; for responders at 10 mg/kg: mice ip; for responders at 10 mg/kg / responders at 100 mg/kg: read-out: MES, animals protected/tested (converted); for responders at 300 mg/kg: read-out: MES, animals protected/tested; for anti-MES protecting ability: Phase I
Description: Three tests were performed:
1. MES--Electroshock Seizure Test
(§1) Maximal electroshock seizures are elicited with a 60-cycle alternating current of 50 mA intensity (5-7 times that necessary to elicit minimal electroshock seizures) delivered via corneal electrodes for 0.2 seconds. A drop of 0.9% saline is instilled in the eye prior to application of the electrodes in order to […].

[2] = system: Subcutaneous Pentylenetetrazol seizure; assay: sc Met subcutaneous pentylenetetrazol (Metrazol) seizure test, mice; format: in vivo; conditions: Mus musculus, sc, read-out: scMet, animals protected/tested (converted)
Description: 2. sc Met--Subcutaneous Pentylenetetrazol (Metrazol^R) Seizure Test
The animal is observed for 30 minutes. Failure to observe even a threshold seizure (a single episode of clonic spasms of at least 5 seconds duration) is defined as protection and the results are expressed as the number of animals protected/the number of animals tested.

[3] = system: Maximal electroshock seizures; assay: Phase VI oral MES test, rats; format: in vivo; conditions: Rattus norvegicus, oral, 50 mg/kg, read-out: MES, animals protected/tested (converted)
Excerpt: as §1
(§2) This oral screen is designated as phase VI.

in vivo = conditions: rat, po, 50 mg/kg
Excerpt: as §2

seizures = assay: Anticonvulsant evaluation (ASP phase I / overall); format: in vivo, mice; conditions: Mus musculus, ip; Phase I; read-out: ASP Classification
Description: The first phase of the ADD Program involved performing tests on male Carworth Farms #1 mice. […] Three tests were performed:
as §1
The animal is observed for 30 minutes.

Structure (SMILES) | responders at 100 mg/kg ([1]; 0.5 h, 30 min) | responders at 300 mg/kg ([1]; 0.5 h, 30 min) | responders at 100 mg/kg ([1]; 4 h, 4 h) | responders at 300 mg/kg ([1]; 4 h, 4 h) | responders at 100 mg/kg ([2]; 0.5 h, 30 min) | responders at 300 mg/kg ([2]; 0.5 h, 30 min) | responders at 100 mg/kg ([2]; 4 h, 4 h) | responders at 300 mg/kg ([2]; 4 h, 4 h) | responders at 50 mg/kg ([3]; 0.5 h, 0.50 h) | responders at 50 mg/kg ([3]; 0.25 h) | responders at 50 mg/kg ([3]; 1.00 h) | responders at 50 mg/kg ([3]; 2.00 h) | responders at 50 mg/kg ([3]; 4.00 h) | Tox, animals toxic/tested (in vivo) | minimal effective dose (seizures) | other results
COC(=O)C1C(=O)C=C(Nc2ccc(Cl)cn2)CC1C (centres unmarked) [Compound 116] | 66.7% | 100% | 0% | 0% | 0% | 100% | 0% | 0% | 100% | 100% | 100% | 100% | 100% | 0/4 | < 100 mg/kg | responders at 10 mg/kg ([1]; 0.25 h, 0.25 h): 75%; responders at 10 mg/kg ([1]; 0.5 h, 0.50 h): 100%; responders at 10 mg/kg ([1]; 1 h, 1.00 h): 50%; responders at 10 mg/kg ([1]; 2 h, 2.00 h): 0%; responders at 10 mg/kg ([1]; 4 h, 4.00 h): 0%; anti-MES protecting ability [1]: showed anti-MES protecting ability; responders at 300 mg/kg ([2]; 0.5 h, 30 min, second trial): 75%
COC(=O)C1C(=O)C=C(Nc2ccc(Cl)cc2)CC1(C)C (centres unmarked) [Compound 119] | 100% | 100% | 100% | 100% | 0% | 100% | 0% | 100% | 75% | 100% | 100% | 100% | 100% | 0/4 | < 100 mg/kg | 
CCOC(=O)C1C(=O)C=C(Nc2ccc(F)cc2)CC1C (centres unmarked) [Compound 124] | 100% | 100% | 0% | 0% | 0% | 100% | 0% | 0% | 100% | 100% | 100% | 100% | 75% | 0/4 | < 100 mg/kg | responders at 300 mg/kg ([2]; 0.5 h, 30 min, second trial): 50%
CCOC(=O)C1C(=O)C=C(Nc2ccc(C)cc2)CC1C (centres unmarked) [Compound 125] | 33.3% | 100% | 0% | 0% | 0% | 0% | 0% | 0% | 100% | 100% | 100% | 100% | 100% | 0/4 | < 100 mg/kg | responders at 10 mg/kg ([1]; 0.25 h, 0.25 h): 25%; responders at 10 mg/kg ([1]; 0.5 h, 0.50 h): 0%; responders at 10 mg/kg ([1]; 1 h, 1.00 h): 25%; responders at 10 mg/kg ([1]; 2 h, 2.00 h): 0%; responders at 10 mg/kg ([1]; 4 h, 4.00 h): 0%; anti-MES protecting ability [1]: showed anti-MES protecting ability
CCOC(=O)C1C(=O)C=C(Nc2ccc(C(C)(C)C)cc2)CC1C (centres unmarked) [Compound 130] | 33.3% | 100% | 0% | 0% | 0% | 0% | 0% | 0% | 25% | 25% | 50% | 75% | 25% | 0/4 | < 100 mg/kg | responders at 10 mg/kg ([1]; 0.25 h, 0.25 h): 100%; responders at 10 mg/kg ([1]; 0.5 h, 0.50 h): 75%; responders at 10 mg/kg ([1]; 1 h, 1.00 h): 50%; responders at 10 mg/kg ([1]; 2 h, 2.00 h): 0%; responders at 10 mg/kg ([1]; 4 h, 4.00 h): 0%; anti-MES protecting ability [1]: showed anti-MES protecting ability
CC1(C)CC(=O)C=C(Nc2ccc([N+](=O)[O-])cc2)C1 [Compound 138] | 33.3% | 100% | 0% | 0% | 0% | 0% | 0% | 0% | 0% | 0% | 0% | 50% | 0% | 0/4 | < 100 mg/kg | 
CC1(C)CC(=O)C=C(Nc2ccc(C(F)(F)F)cc2)C1 [Compound 144] | 0% | 0% | 66.7% | 0% | 0% | 100% | 0% | 0% | 0% | 0% | 75% | 25% | 100% | 0/4 | < 100 mg/kg | 
CC1CC(=O)C=C(Nc2ccc(Cl)cc2)C1 (centres unmarked) [Compound 146, 3-[(p-Chlorophenyl)amino]-5-methyl-2-cyclohexen-1-one] | 100% | 100% | 0% | 100% | 0% | 40% | 0% | 0% | 75% | 25% | 100% | 100% | 50% | 0/4 | < 100 mg/kg | 
O=C1C=C(Nc2ccc(Cl)cc2)CCC1 [Compound 147] | 100% | 100% | 0% | 100% | 0% | 0% | 0% | 0% | 100% | 75% | 50% | 25% | 25% | 0/4 | < 100 mg/kg | 
O=C1C=C(NCc2ccccc2)CCC1 [Compound 148] | 100% | 100% | 0% | 0% | 0% | 0% | 0% | 0% | 50% | 0% | 50% | 50% | 75% | 0/4 | < 100 mg/kg | 
CC(C)(C)c1ccc(NC2=CC(=O)CCC2)cc1 [Compound 150] | 100% | 100% | 0% | 100% | 0% | 60% | 0% | 0% | 50% | 50% | 75% | 25% | 50% | 0/4 | < 100 mg/kg | 
O=C1C=C(Nc2ccc(C(F)(F)F)cc2)CCC1 [Compound 151] | 100% | 100% | 0% | 100% | 0% | 0% | 0% | 0% | 25% | 75% | 25% | 50% | 0% | 0/4 | < 100 mg/kg | 
